`CSCCNS(=O)(=O)c1ccc(NC(=O)Cc2ccc(C)c(Oc3cc(Cl)cc(C#N)c3)c2)c(C)c1` [Compound I-130, 2-[3-(3-Chloro-5-cyano-phenoxy)-4-methyl-phenyl]-N-[2-methyl-4-(2-methylsulfanyl-ethylsulfamoyl)-phenyl]-acetamide]: the melting point (as a rule, the temperature, or range, at which the solid turns liquid) was 155.6 to 156.6 °C.

The molecule `Cc1cc(CC(=O)Nc2ccccc2Cl)cc(C(=O)c2ccc(Cl)cc2)c1` [Compound I-258, 2-[3-(4-Chloro-benzoyl)-5-methyl-phenyl]-N-(2-chloro-phenyl)-acetamide] registered a melting point of 134.7 to 135.5 °C.

The molecule `Cc1cc(S(N)(=O)=O)ccc1NC(=O)Cc1ccc(C)c(Oc2cc(Cl)cc(C#N)c2)c1` [Compound I-122, 2-[3-(3-Chloro-5-cyano-phenoxy)-4-methyl-phenyl]-N-(2-methyl-4-sulfamoyl-phenyl)-acetamide] gave a melting point of 192.8 to 194.1 °C.

`Cc1ccc(CC(=O)Nc2ccc(S(N)(=O)=O)cc2Cl)c(F)c1Oc1cc(C#N)cc(C(F)F)c1` [Compound I-84, N-(2-Chloro-4-sulfamoyl-phenyl)-2-[3-(3-cyano-5-difluoromethyl-phenoxy)-2-fluoro-4-methyl-phenyl]-acetamide] returned a melting point of 218 to 218.7 °C.

The molecule `Cc1ccc(CC(=O)Nc2ccccc2Cl)cc1Oc1cc(C#N)cc(C#N)c1` [Compound I-34, N-(2-Chloro-phenyl)-2-[3-(3,5-dicyano-phenoxy)-4-methyl-phenyl]-acetamide] came in with a melting point of 175.1 to 177.5 °C.

The molecule `CCc1ccc(CC(=O)Nc2ccc(S(N)(=O)=O)cc2C)cc1Oc1cc(C#N)cc(F)c1Cl` [Compound I-50, 2-[3-(2-Chloro-5-cyano-3-fluoro-phenoxy)-4-ethyl-phenyl]-N-(2-methyl-4-sulfamoyl-phenyl)-acetamide] returned a melting point of 217.6 to 220.4 °C.

Take `COC(=O)Cc1ccc(NC(=O)Cc2ccc(C)c(Oc3cc(Cl)cc(C#N)c3)c2)c(Cl)c1` [Compound I-235, (3-Chloro-4-{2-[3-(3-chloro-5-cyano-phenoxy)-4-methyl-phenyl]-acetylamino}-phenyl)-acetic acid methyl ester]: the melting point was in the range of 116.9 to 118 °C.

In the case of `Cc1ccc(CC(=O)Nc2ccc(S(C)(=O)=O)cc2Cl)c(F)c1Oc1cc(C#N)cc(C(F)F)c1` [Compound I-112, N-(2-Chloro-4-methanesulfonyl-phenyl)-2-[3-(3-cyano-5-difluoromethyl-phenoxy)-2-fluoro-4-methyl-phenyl]-acetamide], the melting point was in the range of 179.9 to 182 °C.

The molecule `CCOC(=O)C(=O)Nc1ccc(NC(=O)Cc2ccc(C)c(Oc3cc(Cl)cc(C#N)c3)c2)c(C)c1` [Compound I-178, N-(4-{2-[3-(3-Chloro-5-cyano-phenoxy)-4-methyl-phenyl]-acetylamino}-3-methyl-phenyl)-oxalamic acid ethyl ester] had a melting point of 182.5 to 183.9 °C.

`CC(C)[C@H](N)C(=O)NS(=O)(=O)c1ccc(NC(=O)Cc2ccc(Cl)c(Oc3cc(Cl)cc(C#N)c3)c2F)c(Cl)c1.[Na]` [Compound I-127, N-[4-((S)-2-Amino-3-methyl-butyrylsulfamoyl)-2-chloro-phenyl]-2-[4-chloro-3-(3-chloro-5-cyano-phenoxy)-2-fluoro-phenyl]-acetamide; sodium salt] came in with a melting point of 219.4 to 220.2 °C.

In turn, `Cc1cc(S(=O)(=O)CCC(=O)O)ccc1NC(=O)Cc1ccc(C)c(Oc2cc(Cl)cc(C#N)c2)c1` [Compound I-125, 3-(4-{2-[3-(3-Chloro-5-cyano-phenoxy)-4-methyl-phenyl]-acetylamino}-3-methyl-benzenesulfonyl)-propionic acid] came in with a melting point of 74.3 to 76.5 °C.

`CCC(=O)N(C)S(=O)(=O)c1ccc(NC(=O)Cc2ccc(Cl)c(Oc3cc(Cl)cc(C#N)c3)c2F)c(C)c1` [Compound I-99, 2-[4-Chloro-3-(3-chloro-5-cyano-phenoxy)-2-fluoro-phenyl]-N-[2-methyl-4-(methyl-propionyl-sulfamoyl)-phenyl]-acetamide] displayed a melting point of 212 to 216.9 °C.

The molecule `Cc1cc(S(N)(=O)=O)ccc1NC(=O)Cc1ccc(C)c(Oc2cc(C#N)cc(C#N)c2)c1` [Compound I-43, 2-[3-(3,5-Dicyano-phenoxy)-4-methyl-phenyl]-N-(2-methyl-4-sulfamoyl-phenyl)-acetamide] yielded a melting point of 228.6 to 230.9 °C.

Consider `Cc1cc(S(N)(=O)=O)ccc1NC(=O)Cc1ccc(Cl)c(Oc2cc(C#N)cc(C(F)(F)F)c2)c1F` [Compound I-120, 2-[4-Chloro-3-(3-cyano-5-trifluoromethyl-phenoxy)-2-fluoro-phenyl]-N-(2-methyl-4-sulfamoyl-phenyl)-acetamide], for which the melting point fell in the range of 212 to 216.1 °C.

`COc1ccc(CC(=O)Nc2ccc(S(N)(=O)=O)cc2C)cc1Oc1cc(Cl)cc(C#N)c1` [Compound I-73, 2-[3-(3-Chloro-5-cyano-phenoxy)-4-methoxy-phenyl]-N-(2-methyl-4-sulfamoyl-phenyl)-acetamide] showed a melting point of 222.3 to 224.3 °C.

`COc1ccc(CC(=O)Nc2ccccc2Cl)cc1Oc1cc(C#N)ccc1Cl` [Compound I-62, 2-[3-(2-Chloro-5-cyano-phenoxy)-4-methoxy-phenyl]-N-(2-chloro-phenyl)-acetamide] had a melting point of 194 to 197.8 °C.

For the molecule `CN(C(=O)Cc1ccc(Cl)c(Oc2cc(Cl)cc(C#N)c2)c1F)c1ccccc1Cl` [Compound I-111, 2-[4-Chloro-3-(3-chloro-5-cyano-phenoxy)-2-fluoro-phenyl]-N-(2-chloro-phenyl)-N-methyl-acetamide], the melting point lay in the range of 134 to 137.1 °C.

For the molecule `Cc1cc(CC(=O)Nc2ccc(S(N)(=O)=O)cc2Cl)cc(Oc2cc(C#N)ccc2Cl)c1` [Compound I-148, 2-[3-(2-Chloro-5-cyano-phenoxy)-5-methyl-phenyl]-N-(2-chloro-4-sulfamoyl-phenyl)-acetamide], the melting point is 212.9 to 214.4 °C.

Turning to `Cc1cc(S(=O)(=O)NC2CCC(O)CC2)ccc1NC(=O)Cc1ccc(C)c(Oc2cc(Cl)cc(C#N)c2)c1` (stereo not drawn) [Compound I-121, 2-[3-(3-Chloro-5-cyano-phenoxy)-4-methyl-phenyl]-N-[4-(4-hydroxy-cyclohexylsulfamoyl)-2-methyl-phenyl]-acetamide], the melting point fell in the range of 195.1 to 197.7 °C.

With `N#Cc1cc(Oc2cc(CC(=O)Nc3ccc(S(N)(=O)=O)cc3)ccc2Cl)cc(C(F)(F)F)c1` [Compound I-88, 2-[4-Chloro-3-(3-cyano-5-trifluoromethyl-phenoxy)-phenyl]-N-(4-sulfamoyl-phenyl)-acetamide], the melting point is 219 to 221.4 °C.

For `CCC(=O)NS(=O)(=O)c1ccc(NC(=O)Cc2ccc(C)c(Oc3cc(Cl)cc(C#N)c3)c2F)c(Cl)c1.[Na]`, the melting point lay in the range of 158.8 to 162 °C.

The molecule `Cc1cc(S(N)(=O)=O)ccc1NC(=O)Cc1ccc(Cl)c(Oc2cc(C#N)cc(C#CCN(C)C)c2)c1F` [Compound I-187, 2-{4-Chloro-3-[3-cyano-5-(3-dimethylamino-prop-1-ynyl)-phenoxy]-2-fluoro-phenyl}-N-(2-methyl-4-sulfamoyl-phenyl)-acetamide] gave a melting point of 156.2 to 158.2 °C.

`COc1ccc(NC(=O)Cc2ccc(C)c(Oc3cc(Cl)cc(C#N)c3)c2)c(C)n1` [Compound I-229, 2-[3-(3-Chloro-5-cyano-phenoxy)-4-methyl-phenyl]-N-(6-methoxy-2-methyl-pyridin-3-yl)-acetamide] had a melting point of 168.3 to 170.4 °C.

On to `Cc1cc(C#N)cc(C)c1Oc1cc(CC(=O)Nc2ccc(S(N)(=O)=O)cc2)ccc1Cl` [Compound I-55, 2-[4-Chloro-3-(4-cyano-2,6-dimethyl-phenoxy)-phenyl]-N-(4-sulfamoyl-phenyl)-acetamide], for which the melting point fell in the range of 227.3 to 231.4 °C.

In the case of `O=C(Cc1ccc(Cl)c(C(=O)c2cc(Cl)cc(Cl)c2)c1)Nc1ccccc1Cl` [Compound I-247, 2-[4-Chloro-3-(3,5-dichloro-benzoyl)-phenyl]-N-(2-chloro-phenyl)-acetamide], the melting point was in the range of 197.2 to 198.1 °C.

`N#Cc1cc(C#N)cc(Oc2c(Cl)ccc(CC(=O)Nc3ccccc3Cl)c2F)c1` [Compound I-28, 2-[4-Chloro-3-(3,5-dicyano-phenoxy)-2-fluoro-phenyl]-N-(2-chloro-phenyl)-acetamide] displayed a melting point of 182.6 to 196.5 °C.

Molecule `N#Cc1cc(C#N)cc(Oc2cc(CC(=O)Nc3ccccc3)ccc2Cl)c1` [Compound I-211, 2-[4-Chloro-3-(3,5-dicyano-phenoxy)-phenyl]-N-phenyl-acetamide] came in with a melting point of 199 to 201.9 °C.

In turn, `COc1ccc(CC(=O)Nc2ccc(S(N)(=O)=O)cc2C)cc1Oc1cc(C#N)ccc1Cl` [Compound I-66, 2-[3-(2-Chloro-5-cyano-phenoxy)-4-methoxy-phenyl]-N-(2-methyl-4-sulfamoyl-phenyl)-acetamide] showed a melting point of 232.9 to 236.9 °C.

Molecule `CCc1ccc(CC(=O)Nc2ccc(S(N)(=O)=O)cc2C)cc1Oc1cc(Cl)cc(C#N)c1` [Compound I-46, 2-[3-(3-Chloro-5-cyano-phenoxy)-4-ethyl-phenyl]-N-(2-methyl-4-sulfamoyl-phenyl)-acetamide] gave a melting point of 189.1 to 189.4 °C.

Turning to `Cc1ccc(CC(=O)Nc2ncccc2C)cc1Oc1cc(Cl)cc(C#N)c1` [Compound I-225, 2-[3-(3-Chloro-5-cyano-phenoxy)-4-methyl-phenyl]-N-(3-methyl-pyridin-2-yl)-acetamide], the melting point is 137.9 to 138.8 °C.

Take `CC(C)CC(=O)NS(=O)(=O)c1ccc(NC(=O)Cc2ccc(Cl)c(Oc3cc(Cl)cc(C#N)c3)c2F)c(Cl)c1.[Na]`: the melting point lay within 159.3 to 163.4 °C.

With `NS(=O)(=O)c1ccc(NC(=O)Cc2ccc(Cl)c(Sc3cc(Cl)ccc3Br)c2)cc1` [Compound I-243, 2-[3-(2-Bromo-5-chloro-phenylsulfanyl)-4-chloro-phenyl]-N-(4-sulfamoyl-phenyl)-acetamide], the melting point lay within 220 to 222.3 °C.

In turn, `COc1cc(CC(=O)Nc2ccc(S(N)(=O)=O)cc2C)cc(Oc2cc(Cl)cc(C#N)c2)c1` [Compound I-133, 2-[3-(3-Chloro-5-cyano-phenoxy)-5-methoxy-phenyl]-N-(2-methyl-4-sulfamoyl-phenyl)-acetamide] returned a melting point of 169.9 to 171.1 °C.

Source of the values: patent US8329755B2, “Methods for treating retroviral infections” (Roche Palo Alto LLC, priority 2004, dated 2012).
